Assay [1] addresses T1, human GCN2 full-length protein (Homo sapiens, UniProt Q9P2K8).
T1 construct: purchased Carna Biosciences, Inc
The assay can be described thus: GCN2 enzyme inhibition assay (LanthaScreen TR-FRET). It is filed as biochemical. The following applies: GCN2 enzyme inhibitory activity at compound concentration of 3 μM; for inhibitory rate: 3 µM; for inhibition at 3 µM: read-out: inhibitory rate. As for the experimental part: GCN2 enzyme was preserved at -70° C. and used. The GCN2 enzyme inhibitory activity of the test compound was measured by the LanthaScreenTR-FRET (Time Resolved Fluorescence Resonance Energy Transfer) method (manufactured by ThermoFisher). […] Then, GCN2 enzyme solution diluted with the assay buffer was added by 2 μL to each well. The enzyme solution was not added to a part of the wells to give a control group. After incubation at room temperature for 1 hr, 570 μM ATP solution containing 390 nM […] physiological protein substrate (ThermoFisher) was added by 2 μL. After reaction at room temperature for 1 hr, TR-FRET Dilution Buffer (ThermoFisher) containing 4 nM Terbium-labeled anti-elF2alpha [[…]] antibody (ThermoFisher) dissolved therein was added by 2 μL to each well. After standing at room temperature for 1 hr, time decomposition fluorescence measurement was performed on platereader Envision (manufactured by PerkinElmer).

The subject of assay [2] is osteosarcoma cell line U-2-OS. Put plainly: In vitro cell proliferation inhibition assay (CellTiter-Glo, low amino acid media). The conditions noted are these: McCoy's 5A low amino acid media; for inhibitory rate: 72 hr; for inhibition at 0.1 µM: Homo sapiens, U2OS, 72 h, cell proliferation inhibitory rate. It is filed as cell-based. As for the experimental part: A cell suspension (40 μL) (1000 cells/well) of osteosarcoma cell line U-2-OS obtained from ATCC (American Type Culture Collection) was seeded on a 384 plate using McCoy's 5A low amino acid media (amino acid content 25%). The seeded cells were incubated (37° C., 5% CO2) overnight to 24 hr at the longest. Each example compound was dissolved (10 mM) in DMSO, delivered to wells by using TECAN HP D300 (TECAN), and the plate was incubated for 72 hr (37° C., 5% CO2). A well without addition of compound was treated similarly as a control group. Celltiter-Glo (registered trade mark) Luminescent Cell Viability Assay reagent (Promega KK) equilibrated at room temperature was added (40 μL/well) to cells in each well before compound treatment (untreated group) and 72 hours after compound treatment. After incubation for 10 min, cell proliferation inhibitory rate was measured by the amount of ATP which is a cell viability marker. Luminescence of cells showing ATP amount was measured using ARVO MX (PerkinElmer). Based on the luminescence values of the untreatment group, the control group without addition of Example compound solution, and the treatment group with addition of Example compound, the cell proliferation inhibitory rate (%) of the test compound at a compound concentration of 100 nM was calculated by the following formula and the results thereof are shown in Tables 4-1, 4-2. Inhibitory rate (%)=(1−(luminescence value of treatment group−luminescence value of untreatment group)÷(luminescence value of control group−luminescence value of untreatment group))×100

The structures appear in SMILES notation. Where a name gives a salt, the structure may show the parent alone. Read-outs that look alike come from different tables or passages of the source.

T1 sequence (Q9P2K8 whole entry): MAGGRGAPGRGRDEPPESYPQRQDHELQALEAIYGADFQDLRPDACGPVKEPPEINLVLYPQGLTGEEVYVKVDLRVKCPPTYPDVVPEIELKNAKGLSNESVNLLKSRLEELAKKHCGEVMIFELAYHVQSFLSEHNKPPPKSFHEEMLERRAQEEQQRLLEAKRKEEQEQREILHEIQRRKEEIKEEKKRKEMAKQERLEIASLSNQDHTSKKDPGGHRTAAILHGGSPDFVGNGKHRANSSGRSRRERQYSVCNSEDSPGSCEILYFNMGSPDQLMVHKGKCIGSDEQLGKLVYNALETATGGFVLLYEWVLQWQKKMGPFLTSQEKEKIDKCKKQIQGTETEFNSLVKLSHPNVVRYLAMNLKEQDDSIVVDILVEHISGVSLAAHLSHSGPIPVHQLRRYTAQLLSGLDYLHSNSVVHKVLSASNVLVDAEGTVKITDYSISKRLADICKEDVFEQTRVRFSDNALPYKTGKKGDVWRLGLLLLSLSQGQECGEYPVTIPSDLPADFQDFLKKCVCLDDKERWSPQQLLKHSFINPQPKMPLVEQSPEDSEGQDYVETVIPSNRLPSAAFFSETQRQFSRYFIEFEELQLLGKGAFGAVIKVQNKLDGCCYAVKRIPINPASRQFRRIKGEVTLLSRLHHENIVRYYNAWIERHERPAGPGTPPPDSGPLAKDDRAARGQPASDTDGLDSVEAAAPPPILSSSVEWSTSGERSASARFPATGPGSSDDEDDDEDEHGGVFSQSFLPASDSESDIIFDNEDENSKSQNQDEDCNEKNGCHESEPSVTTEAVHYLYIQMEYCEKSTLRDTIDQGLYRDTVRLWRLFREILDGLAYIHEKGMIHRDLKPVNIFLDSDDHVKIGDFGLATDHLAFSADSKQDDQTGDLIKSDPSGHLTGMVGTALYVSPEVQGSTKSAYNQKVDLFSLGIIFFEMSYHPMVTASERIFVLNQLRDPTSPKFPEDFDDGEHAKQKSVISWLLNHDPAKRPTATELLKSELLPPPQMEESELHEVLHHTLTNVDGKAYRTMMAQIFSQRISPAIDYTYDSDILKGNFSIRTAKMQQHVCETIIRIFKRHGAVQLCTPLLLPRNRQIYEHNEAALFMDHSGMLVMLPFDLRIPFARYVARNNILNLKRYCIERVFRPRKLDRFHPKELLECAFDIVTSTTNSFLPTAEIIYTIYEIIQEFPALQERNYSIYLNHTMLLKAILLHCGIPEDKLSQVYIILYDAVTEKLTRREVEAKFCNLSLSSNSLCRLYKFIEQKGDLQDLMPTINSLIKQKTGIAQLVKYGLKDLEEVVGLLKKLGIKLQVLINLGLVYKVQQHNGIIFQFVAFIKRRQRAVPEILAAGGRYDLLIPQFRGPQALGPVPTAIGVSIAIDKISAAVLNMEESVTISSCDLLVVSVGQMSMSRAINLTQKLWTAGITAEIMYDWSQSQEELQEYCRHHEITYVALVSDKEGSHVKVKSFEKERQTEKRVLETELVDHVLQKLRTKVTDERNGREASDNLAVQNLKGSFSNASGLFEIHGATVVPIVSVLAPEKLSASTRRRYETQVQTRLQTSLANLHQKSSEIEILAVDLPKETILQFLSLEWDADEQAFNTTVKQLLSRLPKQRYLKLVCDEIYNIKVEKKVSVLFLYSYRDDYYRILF

Turning to `O=S(=O)(Nc1ccc(F)c(C#Cc2cnc(N[C@H]3CC[C@H](O)CC3)nc2)c1F)c1cc(Cl)cc2c1OCC2O` (stereo partly drawn) [Example 190, 5-chloro-N-(2,4-difluoro-3-((2-((trans-4-hydroxycyclohexyl)amino)pyrimidin-5-yl)ethynyl)phenyl)-3-hydroxy-2,3-dihydro-1-benzofuran-7-sulfonamide], the inhibitory rate is 99% in assay [1] (Table 3-2) and 65% in assay [2] (Table 4-2).
Turning to `O=S(=O)(Nc1ccc(F)c(C#Cc2cnc(N[C@H]3CC[C@H](O)CC3)nn2)c1F)c1cc(Cl)cc(CO)c1Cl` [Example 177, 2,5-dichloro-N-(2,4-difluoro-3-((3-((trans-4-hydroxycyclohexyl)amino)-1,2,4-triazin-6-yl)ethynyl)phenyl)-3-(hydroxymethyl)benzenesulfonamide], the inhibition at 3 µM in assay [1] (Table 3-2) was found to be 100%. Besides, the inhibition at 0.1 µM in assay [2] (Table 4-2) turned out to be 72%.
`O=S(=O)(Nc1ccc(F)c(C#Cc2cnc3[nH]ncc3c2)c1F)c1cccc(Cl)c1Cl` [Example 38, 2,3-dichloro-N-(2,4-difluoro-3-(1H-pyrazolo[3,4-b]pyridin-5-ylethynyl)phenyl)benzenesulfonamide TFA Salt]: in assay [1] (Table 3-1), the inhibition at 3 µM turned out to be 99%. Moreover, in assay [2] (Table 4-1), the inhibition at 0.1 µM came out at 22%.
The matching figures for `CNc1ncc(C#Cc2c(F)ccc(NS(=O)(=O)c3cc(Cl)ccc3Cl)c2F)cn1` [Example 37, 2,5-dichloro-N-(2,4-difluoro-3-((2-(methylamino)pyrimidin-5-yl)ethynyl)phenyl)benzenesulfonamide TFA Salt]: 98% and 45%.
For `COc1c(CO)cc(Cl)cc1S(=O)(=O)Nc1ccc(F)c(C#Cc2cnc(NC3CC3)nc2)c1F` [Example 138, 5-chloro-N-(3-((2-(cyclopropylamino)pyrimidin-5-yl)ethynyl)-2,4-difluorophenyl)-3-(hydroxymethyl)-2-methoxybenzenesulfonamide], the inhibition at 3 µM in assay [1] (Table 3-2) worked out at 99%. In addition, the inhibition at 0.1 µM in assay [2] (Table 4-2) amounted to 87%.
In the case of `Cc1ncc(Cl)cc1S(=O)(=O)Nc1ccc(F)c(C#Cc2cnc(Nc3cnn(C)c3)nc2)c1F` [Example 163, 5-chloro-N-(2,4-difluoro-3-((2-((1-methyl-1H-pyrazol-4-yl)amino)pyrimidin-5-yl)ethynyl)phenyl)-2-methylpyridine-3-sulfonamide], the inhibition at 3 µM in assay [1] (Table 3-2) turned out to be 100%. The inhibition at 0.1 µM in assay [2] (Table 4-2) turned out to be 88%.
Regarding `C[C@H](CO)Nc1ncc(C#Cc2c(F)ccc(NS(=O)(=O)c3cc(Cl)cc(CO)c3Cl)c2F)cn1` [Example 180, 2,5-dichloro-N-(2,4-difluoro-3-((2-(((2R)-1-hydroxypropan-2-yl)amino)pyrimidin-5-yl)ethynyl)phenyl)-3-(hydroxymethyl)benzenesulfonamide], the inhibition at 3 µM in assay [1] (Table 3-2) turned out to be 103%. Moreover, in assay [2] (Table 4-2), the inhibition at 0.1 µM was 76%.
As to `O=S(=O)(Nc1ccc(F)c(C#Cc2cnc3[nH]ncc3c2)c1F)c1cc(Cl)ccc1F` [Example 26, 5-chloro-N-(2,4-difluoro-3-(1H-pyrazolo[3,4-b]pyridin-5-ylethynyl)phenyl)-2-fluorobenzenesulfonamide TFA Salt], the inhibition at 3 µM in assay [1] (Table 3-1) turned out to be 99%. The inhibition at 0.1 µM in assay [2] (Table 4-1) stood at 41%.
In the case of `Cc1ncc(Cl)cc1S(=O)(=O)Nc1ccc(F)c(C#Cc2cnc(N[C@@H](C)CO)nc2)c1F` [Example 193, 5-chloro-N-(2,4-difluoro-3-((2-(((2S)-1-hydroxypropan-2-yl)amino)pyrimidin-5-yl)ethynyl)phenyl)-2-methylpyridine-3-sulfonamide], the inhibition at 3 µM in assay [1] (Table 3-2) is 98%. The inhibition at 0.1 µM in assay [2] (Table 4-2) came out at 64%.
Regarding `COc1c(CO)cc(Cl)cc1S(=O)(=O)Nc1ccc(F)c(C#Cc2cnc(NCC3CCOC3)nc2)c1F` (stereo not drawn) [Example 145, 5-chloro-N-(2,4-difluoro-3-((2-((tetrahydrofuran-3-ylmethyl)amino)pyrimidin-5-yl)ethynyl)phenyl)-3-(hydroxymethyl)-2-methoxybenzenesulfonamide], the inhibition at 3 µM in assay [1] (Table 3-2) is 99%. For the same molecule, the inhibition at 0.1 µM in assay [2] (Table 4-2) is 69%.
Taken in the same sequence, the figures for `COc1ncc(Cl)cc1S(=O)(=O)Nc1ccc(F)c(C#Cc2cnc(N[C@H](C)CO)nc2)c1F` [Example 175, 5-chloro-N-(2,4-difluoro-3-((2-(((2R)-1-hydroxypropan-2-yl)amino)pyrimidin-5-yl)ethynyl)phenyl)-2-methoxypyridine-3-sulfonamide] were 99% and 75%.
Turning to `O=S(=O)(Nc1ccc(F)c(C#Cc2cnc(NC3COC3)nc2)c1F)c1cc(Cl)cc(CO)c1Cl` [Example 181, 2,5-dichloro-N-(2,4-difluoro-3-((2-(oxetan-3-ylamino)pyrimidin-5-yl)ethynyl)phenyl)-3-(hydroxymethyl)benzenesulfonamide], the inhibition at 3 µM in assay [1] (Table 3-2) was 102%. Moreover, the inhibition at 0.1 µM in assay [2] (Table 4-2) turned out to be 80%.
Consider `Cc1ncc(Cl)cc1S(=O)(=O)Nc1ccc(F)c(C#Cc2cnc(N)nn2)c1F` [Example 158, N-(3-((3-amino-1,2,4-triazin-6-yl)ethynyl)-2,4-difluorophenyl)-5-chloro-2-methylpyridine-3-sulfonamide], for which, in assay [1] (Table 3-2), the inhibition at 3 µM turned out to be 99%. Also, the inhibition at 0.1 µM in assay [2] (Table 4-2) worked out at 43%.
As to `COc1c(CO)cc(Cl)cc1S(=O)(=O)Nc1ccc(F)c(C#Cc2cnc(N)nc2)c1F` [Example 129, N-(3-((2-aminopyrimidin-5-yl)ethynyl)-2,4-difluorophenyl)-5-chloro-3-(hydroxymethyl)-2-methoxybenzenesulfonamide], the inhibition at 3 µM in assay [1] (Table 3-2) was determined as 99%. Further, the inhibition at 0.1 µM in assay [2] (Table 4-2) came to 70%.
Take `C[C@H](CO)Nc1ncc(C#Cc2c(F)ccc(NS(=O)(=O)c3cc(Cl)cc4c3OCC4O)c2F)cn1` (stereo partly drawn) [Example 186, 5-chloro-N-(2,4-difluoro-3-((2-(((2R)-1-hydroxypropan-2-yl)amino)pyrimidin-5-yl)ethynyl)phenyl)-3-hydroxy-2,3-dihydro-1-benzofuran-7-sulfonamide]: the inhibitory rate in assay [1] (Table 3-2) worked out at 100%; in assay [2] (Table 4-2), 43%.
With `Nc1ncc(C#Cc2c(F)ccc(NS(=O)(=O)c3cc(Cl)cc4ccoc34)c2F)cn1` [Example 173, N-(3-((2-aminopyrimidin-5-yl)ethynyl)-2,4-difluorophenyl)-5-chloro-1-benzofuran-7-sulfonamide], the inhibition at 3 µM in assay [1] (Table 3-2) is 99%. Moreover, the inhibition at 0.1 µM in assay [2] (Table 4-2) was 76%.
Taken in the same sequence, the figures for `O=S(=O)(Nc1ccc(F)c(C#Cc2cnc(N[C@H]3CC[C@H](O)CC3)nc2)c1F)c1cc(Cl)cc(CO)c1Cl` [Example 176, 2,5-dichloro-N-(2,4-difluoro-3-((2-((trans-4-hydroxycyclohexyl)amino)pyrimidin-5-yl)ethynyl)phenyl)-3-(hydroxymethyl)benzenesulfonamide] were 100% and 77%.
Taken in the same sequence, the figures for `O=S(=O)(Nc1ccc(F)c(C#Cc2cnc(N[C@H]3CC[C@H](O)CC3)nc2)c1F)c1cc(Cl)cc2c1OCC2O` (stereo partly drawn) [Example 185, 5-chloro-N-(2,4-difluoro-3-((2-((trans-4-hydroxycyclohexyl)amino)pyrimidin-5-yl)ethynyl)phenyl)-3-hydroxy-2,3-dihydro-1-benzofuran-7-sulfonamide] were 100% and 56%.
As for `CNc1ncc(Cl)cc1S(=O)(=O)Nc1ccc(F)c(C#Cc2cnc(N[C@H]3CC[C@H](O)CC3)nc2)c1F` [Example 182, 5-chloro-N-(2,4-difluoro-3-((2-((trans-4-hydroxycyclohexyl)amino)pyrimidin-5-yl)ethynyl)phenyl)-2-(methylamino)pyridine-3-sulfonamide], in assay [1] (Table 3-2), the inhibition at 3 µM was 102%. Further, the inhibition at 0.1 µM in assay [2] (Table 4-2) amounted to 71%.
With `Cc1ccc(Cl)cc1S(=O)(=O)Nc1ccc(F)c(C#Cc2cnc(N)nc2)c1F` [Example 19, N-(3-((2-aminopyrimidin-5-yl)ethynyl)-2,4-difluorophenyl)-5-chloro-2-methylbenzenesulfonamide], in assay [1] (Table 3-1), the inhibition at 3 µM stood at 98%. Besides, in assay [2] (Table 4-1), the inhibition at 0.1 µM came out at 87%.
For `Cc1ncc(Cl)cc1S(=O)(=O)Nc1ccc(F)c(C#Cc2cnc3[nH]ncc3c2)c1F` [Example 2, 5-chloro-N-(2,4-difluoro-3-(1H-pyrazolo[3,4-b]pyridin-5-ylethynyl)phenyl)-2-methylpyridine-3-sulfonamide], the inhibition at 3 µM in assay [1] (Table 3-1) came out at 100%. The inhibition at 0.1 µM in assay [2] (Table 4-1) was 92%.

These data come from patent publication US10696651B2, “Heterocyclic compound” (Takeda Pharmaceutical Company Limited, priority 2016, dated 2020).
